From US7507727B2, “Substituted quinobenzoxazine analogs and methods of using thereof” (Cylene Pharmaceuticals, Inc., priority 2003, dated 2009)

target: c-Myc template DNA (c-myc quadruplex); test: Quadruplex binding / stop assay (Taq polymerase arrest, capillary electrophoresis); settings: read-out: S DATA; Table 1D, stop assay data

Row | Structure (SMILES) | IC50 [µM]
1 | CN1CCCC1CCNC(=O)c1cn2c3c(c(N4CCC(n5c(=O)[nH]c6ccccc65)CC4)c(F)cc3c1=O)Oc1cc3ccccc3cc1-2 (stereo not shown) [compound 1477] | 1
2 | CN1CCCC1CCNC(=O)c1cn2c3c(c(NC4CC(C)(C)NC(C)(C)C4)c(F)cc3c1=O)Oc1cc3ccccc3cc1-2 (stereo not shown) [compound 1478] | 1
3 | CCN(CC)C(=O)C1CCCN(c2c(F)cc3c(=O)c(C(=O)NCCC4CCCN4C)cn4c3c2Oc2cc3ccccc3cc2-4)C1 (stereo not shown) [compound 1479] | 1.75
4 | CN1CCCC1CCNC(=O)c1cn2c3c(c(NC(=O)C4CCCNC4)c(F)cc3c1=O)Oc1cc3ccccc3cc1-2 (stereo not shown) [compound 1480] | 1.75
5 | CN1CCCC1CCNC(=O)c1cn2c3c(c(NCC4CCNCC4)c(F)cc3c1=O)Oc1cc3ccccc3cc1-2 (stereo not shown) [compound 1481] | 1.75
6 | CN1CCCC1CCNC(=O)c1cn2c3c(c(/N=C4\CCCCN4)c(F)cc3c1=O)Oc1cc3ccccc3cc1-2 (stereo not shown) [compound 1482] | 1.75
7 | CN1CCCC1CCNC(=O)c1cn2c3c(c(N4CCC(N5CCCCC5)CC4)c(F)cc3c1=O)Oc1cc3ccccc3cc1-2 (stereo not shown) [compound 1483] | 1.75
8 | CN1CCCC1CCNC(=O)c1cn2c3c(c(NC4CC(C)(C)N(O)C(C)(C)C4)c(F)cc3c1=O)Oc1cc3ccccc3cc1-2 (stereo not shown) [compound 1484] | 1.75
9 | CCOC(=O)N1CCC(Nc2c(F)cc3c(=O)c(C(=O)NCCC4CCCN4C)cn4c3c2Oc2cc3ccccc3cc2-4)CC1 (stereo not shown) [compound 1485] | 1.75
10 | CN1CCC(N(C)c2c(F)cc3c(=O)c(C(=O)NCCC4CCCN4C)cn4c3c2Oc2cc3ccccc3cc2-4)CC1 (stereo not shown) [compound 1486] | 1.75
11 | CN1CCCC1CCNC(=O)c1cn2c3c(c(N(C)C4CCN(Cc5ccccc5)CC4)c(F)cc3c1=O)Oc1cc3ccccc3cc1-2 (stereo not shown) [compound 1487] | 1.75
12 | CN1CCCC1CCNC(=O)c1cn2c3c(c(NCCN4CCCCC4)c(F)cc3c1=O)Oc1cc3ccccc3cc1-2 (stereo not shown) [compound 1488] | 0.75
13 | CC1CCCCN1CCCNc1c(F)cc2c(=O)c(C(=O)NCCC3CCCN3C)cn3c2c1Oc1cc2ccccc2cc1-3 (stereo not shown) [compound 1489] | 0.95
14 | CN1CCCC1CCNC(=O)c1cn2c3c(c(NC4CCCNC4)c(F)cc3c1=O)Oc1cc3ccccc3cc1-2 (stereo not shown) [compound 1490] | 0.75
15 | CN1CCCC1CCNC(=O)c1cn2c3c(c(N4CCC(C#N)(c5ccccc5)CC4)c(F)cc3c1=O)Oc1cc3ccccc3cc1-2 (stereo not shown) [compound 1491] | 1.75
16 | CN1CCCC1CCNC(=O)c1cn2c3c(c(N4CCC(N5CCCC5)CC4)c(F)cc3c1=O)Oc1cc3ccccc3cc1-2 (stereo not shown) [compound 1492] | 0.75
17 | CN1CCCC1CCNC(=O)c1cn2c3c(c(N4CCC(C(N)=O)CC4)c(F)cc3c1=O)Oc1cc3ccccc3cc1-2 (stereo not shown) [compound 1493] | 1.75
18 | CN1CCCC1CCNC(=O)c1cn2c3c(c(NC4CN5CCC4CC5)c(F)cc3c1=O)Oc1cc3ccccc3cc1-2 (stereo not shown) [compound 1495] | 0.75
19 | CN1CCCC1CCNC(=O)c1cn2c3c(c(N4CCC(NC(=O)OC(C)(C)C)CC4)c(F)cc3c1=O)Oc1cc3ccccc3cc1-2 (stereo not shown) [compound 1498] | 1.75
20 | CCN(CC)CCCC(C)Nc1c(F)cc2c(=O)c(C(=O)NCCC3CCCN3C)cn3c2c1Oc1cc2ccccc2cc1-3 (stereo not shown) [compound 1499] | 0.75

Row | Structure (SMILES) | IC50 [µM]
21 | CN(C)CCCNc1c(F)cc2c(=O)c(C(=O)NCCC3CCCN3C)cn3c2c1Oc1cc2ccccc2cc1-3 (stereo not shown) [compound 1500] | 0.75
22 | CC1CCN(CCCNc2c(F)cc3c(=O)c(C(=O)NCCC4CCCN4C)cn4c3c2Oc2cc3ccccc3cc2-4)CC1 (stereo not shown) [compound 1501] | 0.75
23 | CN1CCCC1CCNC(=O)c1cn2c3c(c(N(C)C4CCNC4)c(F)cc3c1=O)Oc1cc3ccccc3cc1-2 (stereo not shown) [compound 1502] | 0.75
24 | CN(CCCNc1c(F)cc2c(=O)c(C(=O)NCCC3CCCN3C)cn3c2c1Oc1cc2ccccc2cc1-3)c1ccccc1 (stereo not shown) [compound 1503] | 1.75
25 | CN1CCCC1CCNC(=O)c1cn2c3c(c(NCCCCN4CCCC4)c(F)cc3c1=O)Oc1cc3ccccc3cc1-2 (stereo not shown) [compound 1504] | 0.75
26 | CN1CCCC1CCNC(=O)c1cn2c3c(c(NC(=O)C4CNCCN4)c(F)cc3c1=O)Oc1cc3ccccc3cc1-2 (stereo not shown) [compound 1505] | > 15
27 | CN1CCCC1CCNC(=O)c1cn2c3c(c(NCC4CCN(C(=O)OC(C)(C)C)C4)c(F)cc3c1=O)Oc1cc3ccccc3cc1-2 (stereo not shown) [compound 1506] | 0.75
28 | CN1CCCC1CCNC(=O)c1cn2c3c(c(N4CCC(c5ccccn5)C4)c(F)cc3c1=O)Oc1cc3ccccc3cc1-2 (stereo not shown) [compound 1507] | 0.75
29 | CN1CCCC1CCNC(=O)c1cn2c3c(c(N4CCC(c5cccnc5)C4)c(F)cc3c1=O)Oc1cc3ccccc3cc1-2 (stereo not shown) [compound 1508] | 0.75
30 | CN1CCCC1CCNC(=O)c1cn2c3c(c(NCc4ccccc4N4CCCCC4)c(F)cc3c1=O)Oc1cc3ccccc3cc1-2 (stereo not shown) [compound 1509] | > 15
31 | CN1CCCC1CCNC(=O)c1cn2c3c(c(N(C)C4CCCCNC4)c(F)cc3c1=O)Oc1cc3ccccc3cc1-2 (stereo not shown) [compound 1510] | > 15
32 | CN1CCCC1CCNC(=O)c1cn2c3c(c(NCc4ccccc4N4CCOCC4)c(F)cc3c1=O)Oc1cc3ccccc3cc1-2 (stereo not shown) [compound 1511] | 1.75
33 | CN1CCCC1CCNC(=O)c1cn2c3c(c(N4CCNC(c5cccnc5)C4)c(F)cc3c1=O)Oc1cc3ccccc3cc1-2 (stereo not shown) [compound 1513] | 1.75
34 | CN1CCCC1CCNC(=O)c1cn2c3c(c(N4C[C@@H](NC(=O)OC(C)(C)C)[C@H](c5ccccc5)C4)c(F)cc3c1=O)Oc1cc3ccccc3cc1-2 (stereo partly shown) [compound 1514] | > 15
35 | COC(=O)N[C@H]1CCN(c2c(F)cc3c(=O)c(C(=O)NCCC4CCCN4C)cn4c3c2Oc2cc3ccccc3cc2-4)C1 (stereo partly shown) [compound 1515] | > 15
36 | O=C(NCCC1CCCN1)c1cn2c3c(c(NCCN4CCCC4)ccc3c1=O)Oc1cc3ccccc3cc1-2 (stereo not shown) [compound 1516] | 1.75
37 | CN1CCCC1CCNC(=O)c1cn2c3c(c(NCCN4CCCC4)ccc3c1=O)Oc1cc3ccccc3cc1-2 (stereo not shown) [compound 1517] | 0.75
38 | O=C(NCCCN1CCOCC1)c1cn2c3c(c(NCCN4CCCC4)ccc3c1=O)Oc1cc3ccccc3cc1-2 [compound 1518] | 1.75
39 | CC1(C)CC(NC(=O)c2cn3c4c(c(NCCN5CCCC5)ccc4c2=O)Oc2cc4ccccc4cc2-3)CC(C)(C)N1 [compound 1519] | 0.75
40 | O=C(NCCN1CCOCC1)c1cn2c3c(c(NCCN4CCCC4)ccc3c1=O)Oc1cc3ccccc3cc1-2 [compound 1521] | 1.75

Row | Structure (SMILES) | IC50 [µM]
41 | CN1CCCC1CCNc1ccc2c(=O)c(C(=O)NCCN3CCCC3)cn3c2c1Oc1cc2ccccc2cc1-3 (stereo not shown) [compound 1522] | 0.75
42 | CN1CCCC1CCNC(=O)c1cn2c3c(c(NCCC4CCCN4C)ccc3c1=O)Oc1cc3ccccc3cc1-2 (stereo not shown) [compound 1523] | 0.75
43 | CN1CCCC1CCNc1ccc2c(=O)c(C(=O)NCCCN3CCOCC3)cn3c2c1Oc1cc2ccccc2cc1-3 (stereo not shown) [compound 1524] | 1.75
44 | CN1CCCC1CCNc1ccc2c(=O)c(C(=O)NC3CC(C)(C)NC(C)(C)C3)cn3c2c1Oc1cc2ccccc2cc1-3 (stereo not shown) [compound 1525] | 1.75
45 | CN(C)CCCCNC(=O)c1cn2c3c(c(NCCC4CCCN4C)ccc3c1=O)Oc1cc3ccccc3cc1-2 (stereo not shown) [compound 1526] | 0.75
46 | CN1CCCC1CCNc1ccc2c(=O)c(C(=O)NCCN3CCOCC3)cn3c2c1Oc1cc2ccccc2cc1-3 (stereo not shown) [compound 1527] | 1.75
47 | O=C(NCCN1CCCC1)c1cn2c3c(c(NCCCN4CCOCC4)ccc3c1=O)Oc1cc3ccccc3cc1-2 [compound 1528] | 1.75
48 | CN1CCCC1CCNC(=O)c1cn2c3c(c(NCCCN4CCOCC4)ccc3c1=O)Oc1cc3ccccc3cc1-2 (stereo not shown) [compound 1529] | 1.75
49 | O=C(NCCCN1CCOCC1)c1cn2c3c(c(NCCCN4CCOCC4)ccc3c1=O)Oc1cc3ccccc3cc1-2 [compound 1530] | > 15
50 | CC1(C)CC(NC(=O)c2cn3c4c(c(NCCCN5CCOCC5)ccc4c2=O)Oc2cc4ccccc4cc2-3)CC(C)(C)N1 [compound 1531] | > 15
51 | CN(C)CCCCNC(=O)c1cn2c3c(c(NCCCN4CCOCC4)ccc3c1=O)Oc1cc3ccccc3cc1-2 [compound 1532] | > 15
52 | O=C(NCCN1CCOCC1)c1cn2c3c(c(NCCCN4CCOCC4)ccc3c1=O)Oc1cc3ccccc3cc1-2 [compound 1533] | > 15
53 | CC(C)(C)OC(=O)NC1CCN(c2ccc3c(=O)c(C(=O)NCCN4CCCC4)cn4c3c2Oc2cc3ccccc3cc2-4)C1 (stereo not shown) [compound 1534] | > 15
54 | CN1CCCC1CCNC(=O)c1cn2c3c(c(N4CCC(NC(=O)OC(C)(C)C)C4)ccc3c1=O)Oc1cc3ccccc3cc1-2 (stereo not shown) [compound 1535] | 0.75
55 | CC(C)(C)OC(=O)NC1CCN(c2ccc3c(=O)c(C(=O)NCCCN4CCOCC4)cn4c3c2Oc2cc3ccccc3cc2-4)C1 (stereo not shown) [compound 1536] | > 15
56 | CC1(C)CC(NC(=O)c2cn3c4c(c(N5CCC(NC(=O)OC(C)(C)C)C5)ccc4c2=O)Oc2cc4ccccc4cc2-3)CC(C)(C)N1 (stereo not shown) [compound 1537] | 1.75
57 | CN(C)CCCCNC(=O)c1cn2c3c(c(N4CCC(NC(=O)OC(C)(C)C)C4)ccc3c1=O)Oc1cc3ccccc3cc1-2 (stereo not shown) [compound 1538] | 1
58 | CN(C)CCCCNC(=O)c1cn2c3c(c(N4CCC(NC(=O)OC(C)(C)C)C4)ccc3c1=O)Oc1cc3ccccc3cc1-2 (stereo not shown) [compound 1539] | 0.75
59 | CN(C)CCCCNc1ccc2c(=O)c(C(=O)NCCN3CCCC3)cn3c2c1Oc1cc2ccccc2cc1-3 [compound 1540] | 1
60 | CN(C)CCCCNc1ccc2c(=O)c(C(=O)NCCC3CCCN3C)cn3c2c1Oc1cc2ccccc2cc1-3 (stereo not shown) [compound 1541] | 1.75

same assay, conditions: read-out: Stop Data c-Myc μM; concentration at which 50% of the DNA was arrested (arrested:full-length 1:1)

Row | Structure (SMILES) | IC50 [µM]
61 | O=C(NCCN1CCCC1)c1cn2c3cc4c(cc3oc3c(N5CC6CCCNC6C5)c(F)cc(c1=O)c32)c(=O)c1ccccc14 (stereo not shown) [compound 590] | 0.18
62 | CN1CCCC1CCNC(=O)c1cn2c3c(c(NCCCCCO)c(F)cc3c1=O)Oc1cc3ccccc3cc1-2 (stereo not shown) [compound 1469] | 1.75
63 | CCCCOCCCNc1c(F)cc2c(=O)c(C(=O)NCCC3CCCN3C)cn3c2c1Oc1cc2ccccc2cc1-3 (stereo not shown) [compound 1470] | 1.75
64 | CN1CCCC1CCNC(=O)c1cn2c3c(c(NCC4CCCO4)c(F)cc3c1=O)Oc1cc3ccccc3cc1-2 (stereo not shown) [compound 1471] | 5
